Results: patent US9950071B2, “Hybrid anticancer prodrug simultaneously producing cinnamaldehyde and quinone methide and method for preparing same” (INDUSTRIAL COOPERATION FOUNDATION CHONBUK NATIONAL …, priority 2014, dated 2018)

Columns and labels:
[1] = system: DU145, SW620 and NIH3T3 cells; assay: cytotoxicity by MTT assay; format: cell-based; conditions: 24 hr treatment, various amounts
Method: The cytotoxities of the QCA prepared in Example 1 and the QBCA prepared in Example 2 were measured by an MTT assay. In detail, a prostate cancer cell line DU145, a colorectal cancer cell line SW620, and a fibroblast cell NIH3T3 were inoculated in a 24-well plate with the density of 1×10^5 cells/well, respectively, and cultured for 24 hr to reach up to 90% confluency. The cells were treated with various amounts of QCA, QBCA, Q1, or cinnamaldehyde and cultured for 24 hr. 100 μL of the MTT solution was put each well and the cells were cultured for 4 hr. The generated formazan crystals were dissolved in 200 μL of dimethylsulfoxide. After 10 min of the culture, an absorbance at 570 nm was measured by using a micro plate reader (Biotek Instruments, Winooski, Vt.). A cell survival rate was determined by comparing absorbances of cells in a control group and QCA or QBCA-treated cells, and the results were illustrated in FIGS. 9 and 10.

[2] = system: xenograft mouse model of DU145 and SW620; assay: growth and size of tumor in xenograft model; format: in vivo; conditions: for growth inhibition effect of the tumor / size of the tumor: 2 mg/kg through tail vein every 3 days
Method: In order to verify in vivo anticancer activity of the QCA, a tumor in a xenograft model was observed. First, cancer cells were injected to a side hypodermic tissue of mouse by using a xenograft mouse model of DU145 and SW620 and when the tumor after cell transplantation started to be touched small, cinnamaldehyde, Q1, and cinnamaldehyde and Q1, or QCA was administrated by 2 mg/kg though tail vein every 3 days, and then the size of the tumor in the mouse was measured and the result thereof was illustrated in FIG. 17. Further, different amounts of QCA were administrated to the mouse having the tumor and in order to compare the effect thereof, 2 mg/kg of camptotethin (CPT) as an anticancer agent which was commercialized was administrated in other mouse, and then the size of the tumor of the mouse was measured and the result thereof was illustrated in FIG. 18.

[3] = QCA structure after hydrolysis in tumor environment (1H NMR); format: physicochemical
Method: In a tumor environment, in order to verify a structure of the QCA triggered by double stimulus, the QCA was cultured for 24 hr at pH 5.5 and verified through ^1H NMR and the structure of the QCA was illustrated in FIG. 5.

[4] = in vivo; cited from earlier work
[5] = system: liver and heart tissues; assay: organ damage, H&E and TUNEL staining of liver and heart tissues; format: in vivo, mouse; conditions: 21 days, once per three days
[6] = system: prostate cancer cell line DU145; assay: generation of reactive oxygen species by flow cytometry (DCFH-DA); format: cell-based; conditions: DU145, treated 12 hr, compared with cinnamaldehyde
Method: The prostate cancer cell line DU145 (4×10^5) was inoculated in a 24-well culture plate and cultured for 24 hr, and treated with cinnamaldehyde or QCA for 12 hr. Cells were washed with a new medium twice and resuspended in a 1× binding buffer at a concentration of 1×10^5 cells/mL. 100 μL of the cell suspension was transferred to 5 mL of a culture tube and added with 5 μM of 2′,7′-dichlorofluorescein diacetate (DCFH-DA) and softly mixed. The cells were dark-cultured for 15 min at room temperature and added with 400 μL of the 1× binding buffer. The stained cells were measured by using a flow cytometry (FACS Caliber, Becton Dickinson, San Jose, Calif.) and the result was illustrated in FIG. 8. A total of 1.5×10^4 cells per sample were analyzed.

[7] = system: prostate cancer cell line DU145; assay: cell GSH level (Ellman's reagent); format: cell-based
Method: (§1) A prostate cancer cell line DU145, a colorectal cancer cell line SW620, and a fibroblast cell NIH3T3 were inoculated in a 6-well plate (5×10^5/well) to reach 80% confluency. The cell lines were treated with various compounds for 1.5 hr at 37° C. and then, cells were obtained and washed with PBS. Thereafter, the cells were lysed in ice in 40 μL of a Triton X-100 lysis buffer solution. After 20 min, the lysate was centrifuged with 9,000 g and 10 μL of a supernatant was mixed with 50 μL of an Ellman's reagent (0.5 mM DTNB). The amount of GSH was quantified by measuring an absorbance at 405 nm using a microplate reader (Biotek Instruments, Winooski, Vt.). In the treated cells, a percentage of the GSH content was compared with the base GSH content measured in untreated cells, and the result was illustrated in FIG. 7.

[8] = system: fibroblast cell NIH3T3; assay: cell GSH level (Ellman's reagent); format: cell-based; conditions: NIH3T3, 1.5 hr at 37° C., compared with untreated cells
Method: as §1

[9] = system: colorectal cancer cell line SW620; assay: cell GSH level (Ellman's reagent); format: cell-based
Method: as §1

[10] = toxicity of QCA: ALT evaluation and H&E staining of liver and heart; format: in vivo; conditions: 2 mg/kg, 10 days, once per 2 days
Method: In order to verify the stability of the QCA, after 2 mg/kg of the QCA was injected to the mouse for 10 days once per 2 days, alanine transaminase (ALT) evaluation and H&E staining of the liver and heart tissues were performed, and the result thereof was illustrated in FIGS. 24 and 25.

[11] = system: procaspase-3 and PARP-1 in SW620 cells; assay: immunoblot analysis; format: cell-based; conditions: SW620, 8 hr, various concentrations
Method: (§2) The prostate cancer cell line DU145 and the colorectal cancer cell line SW620 (1×10^6/well) were treated with cinnamaldehyde or QCA for 8 hr at various concentrations and washed with new PBS twice. Proteins were extracted from the cells by using a lysis buffer solution. Electrophoresis was performed by using […] of a cell lysate in a […] and the proteins were transferred to a PVDF membrane (Millipore, Billerica, Mass.). A blot was cultured together with a PARP monoclonal antibody (Santa Cruz Biotechnology, Dallas, Tex.) or caspase-3 (Santa Cruz Biotechnology, Dallas, Tex.) and a HRP-coupled anti-goat antibody (Millipore, Billerica, Mass.) was used as a secondary antibody. An immunoblot signal was verified by using a chemiluminescent reagent (Pierce, Rockford, Ill.) of SuperSignal Ultra and the result thereof was illustrated in FIGS. 11 and 12.

[12] = system: procaspase-3 and PARP-1 in DU145 cells; assay: immunoblot analysis; format: cell-based; conditions: DU145, 8 hr, various concentrations
Method: as §2

[13] = system: DU145 cells; assay: flow cytometry with Annexin V-FITC and propidium iodide; format: cell-based; conditions: DU145, treated 24 hr, compared with cinnamaldehyde and Q1
Method: (§3) Further, in order to support the result of the DNA fragmentation assay, the DU145 and SW620 cells were cultured for 24 hr and treated with cinnamaldehyde, Q1 or QCA for 24 hr and then flow cytometry was performed by using Annexin V-FITC as a marker of apoptosis and propidium iodide (PI) as a marker for […], and the result was illustrated in FIGS. 15 and 16.

[14] = system: SW620 cells; assay: as above; format: cell-based; conditions: SW620, treated 24 hr, compared with cinnamaldehyde and Q1
Method: as §3

[15] = system: SW620 tumor mouse model; assay: histologic examination of tumor (H&E and TUNEL staining); format: in vivo; conditions: 21 days, once per three days
Method: In order to verify the apoptosis induced by the QCA, in a SW620 tumor mouse model, H&E staining of the tumor was performed after administrating cinnamaldehyde, Q1, the cinnamaldehyde and the Q1, or QCA for 21 days once per three days, and the result thereof was illustrated in FIG. 20. Further, terminal deoxynucleotidyl transferase dUTP nick end labeling (TUNEL) staining of the tumor was performed by the same method, and the result thereof was illustrated in FIG. 21.

[16] = system: SW620 cells; assay: DNA fragmentation assay (electrophoresis); format: cell-based
Method: In order to verify an effect of the QCA on the DNA fragments, a DNA fragmentation assay of SW620 was performed. First, the DU145 and SW620 cells were cultured for 24 hr and then treated with 100 μm of cinnamaldehyde, 100 μm of Q1 (4-(1,3,2-dioxaborinan-2-yl)benzyl carbonate, and generating only quinone methide), and 25 μm, 50 μm, 100 μm of the QCA to isolate the DNA and the fragmentation of the nucleosomal DNA was observed by electrophoresis, and the result thereof was illustrated in FIG. 13.
Further, hereinabove, the DNA fragments of the SW620 treated with 100 μm of the QCA were analyzed over time and the result thereof was illustrated in FIG. 14.

[17] = system: tumor lysate; assay: tumor lysate analysis by LC-MS (generation of QM and cinnamaldehyde); format: in vivo, mouse
Method: In the tumor, in order to verify whether to generate the QM and the cinnamaldehyde in the tumor, a tumor lysate was analyzed by LC-MS after 22 days and the result thereof was illustrated in FIG. 19.

For CC1(COC(=O)OCc2ccc(B3OCCCO3)cc2)COC(/C=C/c2ccccc2OC(=O)c2ccccc2)OC1 (stereo not shown) [QBCA, 4-(1,3,2-dioxaborinan-2-yl)benzyl ((5-methyl-2-(2-benzoyloxyphenyl)vinyl-1,3-dioxan-5-yl)methyl)carbonate], the “cytotoxicity (cell survival rate, MTT)” value [1] was “increased according to a concentration”.

In the case of O=CC=Cc1ccccc1 [cinnamaldehyde], the “growth inhibition effect of the tumor / size of the tumor” value [2] is given as “slight”, the “change after culture at neutral pH without H2O2” value ([3]; 72 hr, neutral pH, without H2O2) is given as “any change was not observed” and the half-life [4] is given as “less than 1.5 hr”.

For CC1(COC(=O)OCc2ccc(B3OCCCO3)cc2)COC(/C=C/c2ccccc2)OC1 (stereo not shown) [QCA, 4-(1,3,2-dioxaborinan-2-yl)benzyl ((5-methyl-2-styryl-1,3-dioxan-5-yl)methyl)carbonate], the “growth inhibition effect of the tumor / size of the tumor” value [2] was “significantly smaller size of the tumor”, the “anticancer activity (size of the tumor)” value ([2]; QCA 1 mg/kg or less) was “a different anticancer activity was not shown” and the “anticancer activity (size of the tumor)” value ([2]; QCA 2 mg/kg, compared with 2 mg/kg CPT) was “prominent anticancer activity”. For the same compound, the “organ damage (liver and heart, H&E and TUNEL)” value [5] was “did not induce a particular organ damage”, the “boronate oxidation and formation of hydroxybenzyl alcohol (1H NMR)” value ([3]; H2O2-mediated, peaks 6.9 and 6.4 ppm) was “formation of hydroxybenzyl alcohol and oxidation of H2O2-mediated boronate were verified” and the “release of cinnamaldehyde by acetal bond cleavage (1H NMR)” value ([3]; cultured 24 hr at pH 5.5, aldehyde peak 9.4 ppm) was “cinnamaldehyde generated while an acetal bond was broken”. The “apoptosis / cell toxicity by ROS generation (FIG. 8)” value [6] was “much higher cell toxicity than the cinnamaldehyde”, the “GSH level at 50 μM” value ([7]; DU145, 50 μM) was “Most of GSH was depleted” and the “further reduction of the GSH at 100 μM” value ([7]; DU145, 100 μM) was “not further observed”. The GSH level ([7]; DU145, 1.5 hr at 37° C., compared with untreated cells) was “significantly reduced in a dose-dependent manner”, the GSH level [8] was “no effect” and the “GSH level at 50 μM” value ([9]; SW620, 50 μM) was “Most of GSH was depleted”. The “further reduction of the GSH at 100 μM” value ([9]; SW620, 100 μM) was “not further observed”, the GSH level ([9]; SW620, 1.5 hr at 37° C., compared with untreated cells) was “significantly reduced in a dose-dependent manner” and the “evidence of toxicity accumulated in the liver and the heart (H&E)” value [10] was “not observed”. For the same compound, the “serum ALT level compared with the untreated mouse” value [10] was “a little difference”, the “expression of PARP-1” value [11] was “concentration-dependently reduced” and the “expression of procaspase-3” value [11] was “concentration-dependently reduced”. The “expression of PARP-1” value [12] was “concentration-dependently reduced”, the “expression of procaspase-3” value [12] was “concentration-dependently reduced” and the “apoptosis (Annexin V / PI)” value [13] was “faster apoptosis than the cinnamaldehyde and Q1-treated cells”. For the same compound, the “apoptosis (Annexin V / PI)” value [14] was “faster apoptosis than the cinnamaldehyde and Q1-treated cells”, the “apoptosis in tumor tissue (H&E, TUNEL)” value [15] was “apoptosis of no-nuclear cells was widely shown” and the “amount of the DNA fragments over time” value ([16]; SW620, 100 μm QCA, over time) was “gradually increased in a concentration and time-dependent manner”. For the same compound, the “DNA fragments (nucleosomal DNA ladder)” value ([16]; SW620, QCA 25, 50, 100 μm vs 100 μm cinnamaldehyde and 100 μm Q1) was “more DNA fragments than the cinnamaldehyde and the Q1”, the “QM and cinnamaldehyde in the liver” value ([17]; liver, after 22 days) was “not detected” and the “GSH value in tumor lower than the tumor of the untreated mouse” value ([17]; tumor lysate after 22 days) was “up to 38%”. For the same compound, the “generation of cinnamaldehyde in the tumor” value ([17]; tumor lysate after 22 days, new peak same as cinnamaldehyde treatment) was “cinnamaldehyde was generated” and the “cytotoxicity (cell survival rate, MTT)” value [1] was “increased according to a concentration”.

In the case of “4-(1,3,2-dioxaborinan-2-yl)benzyl carbonate [Example Q1, reference compound]”, the “growth inhibition effect of the tumor / size of the tumor” value [2] is reported as “slight”.
